Measurements as given in patent US12281080B2, “Quinoline-based compounds and methods of inhibiting CDK8/19” (University of South Carolina, priority 2018, dated 2025).

Experiments:
PRKR (EIF2AK2) = PRKR (EIF2AK2) (Homo sapiens (Human), UniProt P19525); test: KINOMEscan scanMAX; type: binding; conditions: 2000 nM; read-out: Percent Control
ARK5 (NUAK1) = ARK5 (NUAK1) (Homo sapiens (Human), UniProt O60285); test: KINOMEscan scanMAX; type: binding; conditions: 2000 nM; read-out: Percent Control
ALK = ALK (Homo sapiens (Human), UniProt Q9UM73); test: KINOMEscan scanMAX; type: binding; conditions: 2000 nM; read-out: Percent Control
LATS1 = LATS1 (Homo sapiens (Human), UniProt O95835); test: KINOMEscan scanMAX; type: binding; conditions: 2000 nM; read-out: Percent Control
TNK2 = TNK2 (Homo sapiens (Human), UniProt Q07912); test: KINOMEscan scanMAX; type: binding; conditions: 2000 nM; read-out: Percent Control
PAK2 = PAK2 (Homo sapiens (Human), UniProt Q13177); test: KINOMEscan scanMAX; type: binding; conditions: 2000 nM; read-out: Percent Control
EGFR(L858R) = EGFR(L858R) (Homo sapiens (Human), UniProt P00533, L858R); test: KINOMEscan scanMAX; type: binding; conditions: 2000 nM; read-out: Percent Control
TESK1 = TESK1 (Homo sapiens (Human), UniProt Q15569); test: KINOMEscan scanMAX; type: binding; conditions: 2000 nM; read-out: Percent Control
SGK3 = SGK3 (Homo sapiens (Human), UniProt Q96BR1); test: KINOMEscan scanMAX; type: binding; conditions: 2000 nM; read-out: Percent Control
[1] = target: ABL1(Y253F)-phosphorylated (Homo sapiens (Human), UniProt P00519, Y253F); test: KINOMEscan scanMAX; type: binding; conditions: 2000 nM; read-out: Percent Control
JNK1 (MAPK8) = JNK1 (MAPK8) (Homo sapiens (Human), UniProt P45983); test: KINOMEscan scanMAX; type: binding; conditions: 2000 nM; read-out: Percent Control
BMX = BMX (Homo sapiens (Human), UniProt P51813); test: KINOMEscan scanMAX; type: binding; conditions: 2000 nM; read-out: Percent Control
MAK = MAK (Homo sapiens (Human), UniProt P20794); test: KINOMEscan scanMAX; type: binding; conditions: 2000 nM; read-out: Percent Control
FGFR1 = FGFR1 (Homo sapiens (Human), UniProt P11362); test: KINOMEscan scanMAX; type: binding; conditions: 2000 nM; read-out: Percent Control
EGFR = EGFR (Homo sapiens (Human), UniProt P00533); test: KINOMEscan scanMAX; type: binding; conditions: 2000 nM; read-out: Percent Control
EPHA4 = EPHA4 (Homo sapiens (Human), UniProt P54764); test: KINOMEscan scanMAX; type: binding; conditions: 2000 nM; read-out: Percent Control
SRPK1 = SRPK1 (Homo sapiens (Human), UniProt Q96SB4); test: KINOMEscan scanMAX; type: binding; conditions: 2000 nM; read-out: Percent Control
LIMK1 = LIMK1 (Homo sapiens (Human), UniProt P53667); test: KINOMEscan scanMAX; type: binding; conditions: 2000 nM; read-out: Percent Control
SNRK = SNRK (Homo sapiens (Human), UniProt Q9NRH2); test: KINOMEscan scanMAX; type: binding; conditions: 2000 nM; read-out: Percent Control
RIOK2 = RIOK2 (Homo sapiens (Human), UniProt Q9BVS4); test: KINOMEscan scanMAX; type: binding; conditions: 2000 nM; read-out: Percent Control
HIPK3 = HIPK3 (Homo sapiens (Human), UniProt Q9H422); test: KINOMEscan scanMAX; type: binding; conditions: 2000 nM; read-out: Percent Control
KIT-autoinhibited = KIT-autoinhibited (Homo sapiens (Human), UniProt P10721); test: KINOMEscan scanMAX; type: binding; conditions: 2000 nM; read-out: Percent Control
ITK = ITK (Homo sapiens (Human), UniProt Q08881); test: KINOMEscan scanMAX; type: binding; conditions: 2000 nM; read-out: Percent Control
[2] = target: PFCDPK1(P.falciparum) (CDPK1) (Plasmodium falciparum (isolate 3D7), UniProt P62344); test: KINOMEscan scanMAX; type: binding; conditions: 2000 nM; read-out: Percent Control
DLK (MAP3K12) = DLK (MAP3K12) (Homo sapiens (Human), UniProt Q12852); test: KINOMEscan scanMAX; type: binding; conditions: 2000 nM; read-out: Percent Control
[3] = target: ABL1(Q252H)-phosphorylated (Homo sapiens (Human), UniProt P00519, Q252H); test: KINOMEscan scanMAX; type: binding; conditions: 2000 nM; read-out: Percent Control
CDK7 = CDK7 (Homo sapiens (Human), UniProt P50613); test: KINOMEscan scanMAX; type: binding; conditions: 2000 nM; read-out: Percent Control
PAK6 = PAK6 (Homo sapiens (Human), UniProt Q9NQU5); test: KINOMEscan scanMAX; type: binding; conditions: 2000 nM; read-out: Percent Control
CAMK1B (PNCK) = CAMK1B (PNCK) (Homo sapiens (Human), UniProt Q6P2M8); test: KINOMEscan scanMAX; type: binding; conditions: 2000 nM; read-out: Percent Control
DAPK1 = DAPK1 (Homo sapiens (Human), UniProt P53355); test: KINOMEscan scanMAX; type: binding; conditions: 2000 nM; read-out: Percent Control
WEE2 = WEE2 (Homo sapiens (Human), UniProt P0C1S8); test: KINOMEscan scanMAX; type: binding; conditions: 2000 nM; read-out: Percent Control
CDKL2 = CDKL2 (Homo sapiens (Human), UniProt Q92772); test: KINOMEscan scanMAX; type: binding; conditions: 2000 nM; read-out: Percent Control
NEK10 = NEK10 (Homo sapiens (Human), UniProt Q6ZWH5); test: KINOMEscan scanMAX; type: binding; conditions: 2000 nM; read-out: Percent Control
IRAK3 = IRAK3 (Homo sapiens (Human), UniProt Q9Y616); test: KINOMEscan scanMAX; type: binding; conditions: 2000 nM; read-out: Percent Control
NEK1 = NEK1 (Homo sapiens (Human), UniProt Q96PY6); test: KINOMEscan scanMAX; type: binding; conditions: 2000 nM; read-out: Percent Control
[4] = Mouse pharmacokinetics, intraperitoneal, serum; type: in vivo, mice
Description: […] Blood samples were collected at different time points (5 mice per time point) and Senexin C concentration in the serum was measured by LC/MS/MS.

SLK = SLK (Homo sapiens (Human), UniProt Q9H2G2); test: KINOMEscan scanMAX; type: binding; conditions: 2000 nM; read-out: Percent Control
TXK = TXK (Homo sapiens (Human), UniProt P42681); test: KINOMEscan scanMAX; type: binding; conditions: 2000 nM; read-out: Percent Control
IGF1R = IGF1R (Homo sapiens (Human), UniProt P08069); test: KINOMEscan scanMAX; type: binding; conditions: 2000 nM; read-out: Percent Control
IGF1R, sequence (P08069 31-1367): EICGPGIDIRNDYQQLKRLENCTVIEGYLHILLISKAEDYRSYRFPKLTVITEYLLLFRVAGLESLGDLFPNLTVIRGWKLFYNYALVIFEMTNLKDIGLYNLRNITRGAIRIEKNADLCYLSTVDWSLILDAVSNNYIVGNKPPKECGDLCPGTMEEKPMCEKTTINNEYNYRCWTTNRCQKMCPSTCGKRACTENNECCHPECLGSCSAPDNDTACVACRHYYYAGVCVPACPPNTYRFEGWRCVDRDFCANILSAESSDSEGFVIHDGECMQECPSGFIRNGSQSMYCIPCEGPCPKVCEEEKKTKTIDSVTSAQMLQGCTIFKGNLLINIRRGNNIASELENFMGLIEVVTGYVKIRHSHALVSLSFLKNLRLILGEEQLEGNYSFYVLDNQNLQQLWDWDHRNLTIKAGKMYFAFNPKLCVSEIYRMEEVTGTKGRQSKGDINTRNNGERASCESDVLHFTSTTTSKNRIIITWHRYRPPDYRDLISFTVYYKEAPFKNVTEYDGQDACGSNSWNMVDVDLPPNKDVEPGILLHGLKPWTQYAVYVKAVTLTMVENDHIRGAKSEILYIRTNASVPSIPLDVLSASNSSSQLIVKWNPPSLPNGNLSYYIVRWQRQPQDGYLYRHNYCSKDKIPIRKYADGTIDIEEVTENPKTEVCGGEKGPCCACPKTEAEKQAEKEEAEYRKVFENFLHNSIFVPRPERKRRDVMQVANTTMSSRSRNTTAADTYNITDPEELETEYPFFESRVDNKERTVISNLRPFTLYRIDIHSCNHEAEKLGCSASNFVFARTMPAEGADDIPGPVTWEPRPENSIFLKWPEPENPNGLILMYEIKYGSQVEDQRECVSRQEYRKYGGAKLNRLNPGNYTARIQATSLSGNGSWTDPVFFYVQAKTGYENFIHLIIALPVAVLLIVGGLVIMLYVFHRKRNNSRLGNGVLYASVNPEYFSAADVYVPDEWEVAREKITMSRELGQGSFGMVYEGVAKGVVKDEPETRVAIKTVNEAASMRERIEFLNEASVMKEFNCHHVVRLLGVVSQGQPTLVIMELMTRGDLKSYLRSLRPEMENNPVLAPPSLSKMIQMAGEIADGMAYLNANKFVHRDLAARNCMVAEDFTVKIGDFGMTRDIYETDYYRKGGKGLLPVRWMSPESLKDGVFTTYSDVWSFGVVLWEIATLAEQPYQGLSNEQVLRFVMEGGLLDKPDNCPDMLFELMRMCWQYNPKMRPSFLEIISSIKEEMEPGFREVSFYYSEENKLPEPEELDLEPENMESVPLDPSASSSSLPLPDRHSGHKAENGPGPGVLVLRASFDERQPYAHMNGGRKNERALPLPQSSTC

ITK, sequence (Q08881 whole entry): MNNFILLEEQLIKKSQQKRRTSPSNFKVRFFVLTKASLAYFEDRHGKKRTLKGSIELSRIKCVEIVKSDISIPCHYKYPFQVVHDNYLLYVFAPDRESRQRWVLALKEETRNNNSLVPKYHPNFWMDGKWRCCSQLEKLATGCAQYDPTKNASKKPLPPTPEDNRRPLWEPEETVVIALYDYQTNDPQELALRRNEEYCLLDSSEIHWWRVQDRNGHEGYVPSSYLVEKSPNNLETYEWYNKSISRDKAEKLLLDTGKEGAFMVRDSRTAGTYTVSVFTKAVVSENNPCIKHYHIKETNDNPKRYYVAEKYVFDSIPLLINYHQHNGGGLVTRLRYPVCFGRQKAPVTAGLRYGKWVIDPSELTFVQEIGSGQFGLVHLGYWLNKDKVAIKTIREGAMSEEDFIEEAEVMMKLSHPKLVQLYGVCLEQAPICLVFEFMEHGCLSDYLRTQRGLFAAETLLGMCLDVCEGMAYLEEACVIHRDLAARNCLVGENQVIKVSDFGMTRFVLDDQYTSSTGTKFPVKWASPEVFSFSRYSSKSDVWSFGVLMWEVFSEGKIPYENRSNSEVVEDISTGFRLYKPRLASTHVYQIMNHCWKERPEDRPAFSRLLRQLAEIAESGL
EGFR(L858R), sequence (P00533 25-1210 L858R): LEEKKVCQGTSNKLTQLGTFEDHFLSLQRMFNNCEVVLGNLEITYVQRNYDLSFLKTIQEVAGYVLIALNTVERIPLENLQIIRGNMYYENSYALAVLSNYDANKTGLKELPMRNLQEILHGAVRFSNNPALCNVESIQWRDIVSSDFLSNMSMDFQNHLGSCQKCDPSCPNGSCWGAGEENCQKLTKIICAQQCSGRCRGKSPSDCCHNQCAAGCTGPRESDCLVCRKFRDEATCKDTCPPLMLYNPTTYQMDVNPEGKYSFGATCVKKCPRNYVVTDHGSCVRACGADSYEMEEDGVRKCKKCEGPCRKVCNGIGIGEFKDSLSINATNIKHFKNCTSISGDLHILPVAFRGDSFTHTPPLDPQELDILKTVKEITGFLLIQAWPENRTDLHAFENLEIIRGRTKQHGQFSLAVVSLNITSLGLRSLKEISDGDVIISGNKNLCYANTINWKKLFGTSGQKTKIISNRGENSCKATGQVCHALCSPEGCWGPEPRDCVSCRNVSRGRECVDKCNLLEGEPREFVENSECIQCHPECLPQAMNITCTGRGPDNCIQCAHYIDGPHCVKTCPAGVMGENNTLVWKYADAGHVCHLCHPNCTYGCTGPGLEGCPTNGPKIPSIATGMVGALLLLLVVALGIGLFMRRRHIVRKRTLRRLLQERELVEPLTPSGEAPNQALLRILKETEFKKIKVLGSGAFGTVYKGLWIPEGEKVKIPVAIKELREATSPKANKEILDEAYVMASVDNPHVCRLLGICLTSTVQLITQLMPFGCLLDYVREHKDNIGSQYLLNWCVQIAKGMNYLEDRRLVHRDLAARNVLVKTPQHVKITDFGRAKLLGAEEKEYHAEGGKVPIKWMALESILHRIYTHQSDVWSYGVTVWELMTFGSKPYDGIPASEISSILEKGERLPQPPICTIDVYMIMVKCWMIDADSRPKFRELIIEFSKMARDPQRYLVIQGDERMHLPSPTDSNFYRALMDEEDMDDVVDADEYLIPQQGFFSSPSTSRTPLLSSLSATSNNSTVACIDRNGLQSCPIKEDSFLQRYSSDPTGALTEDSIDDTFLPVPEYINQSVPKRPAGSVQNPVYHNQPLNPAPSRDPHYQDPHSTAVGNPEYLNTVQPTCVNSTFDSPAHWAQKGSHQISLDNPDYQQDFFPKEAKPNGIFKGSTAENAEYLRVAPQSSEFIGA
CDKL2, sequence (Q92772 whole entry): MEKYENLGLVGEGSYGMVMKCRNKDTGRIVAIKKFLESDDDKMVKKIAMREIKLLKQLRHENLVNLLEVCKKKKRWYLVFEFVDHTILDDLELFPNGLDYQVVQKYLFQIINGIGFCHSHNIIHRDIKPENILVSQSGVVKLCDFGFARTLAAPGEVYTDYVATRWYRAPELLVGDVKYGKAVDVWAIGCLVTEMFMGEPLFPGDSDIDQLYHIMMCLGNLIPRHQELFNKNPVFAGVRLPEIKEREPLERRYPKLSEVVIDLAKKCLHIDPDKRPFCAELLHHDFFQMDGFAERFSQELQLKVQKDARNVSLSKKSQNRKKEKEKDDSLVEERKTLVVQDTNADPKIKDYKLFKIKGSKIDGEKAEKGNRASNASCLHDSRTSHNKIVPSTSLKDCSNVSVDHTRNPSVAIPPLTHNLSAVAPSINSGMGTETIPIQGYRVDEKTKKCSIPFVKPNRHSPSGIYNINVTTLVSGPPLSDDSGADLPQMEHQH
JNK1 (MAPK8), sequence (P45983 whole entry): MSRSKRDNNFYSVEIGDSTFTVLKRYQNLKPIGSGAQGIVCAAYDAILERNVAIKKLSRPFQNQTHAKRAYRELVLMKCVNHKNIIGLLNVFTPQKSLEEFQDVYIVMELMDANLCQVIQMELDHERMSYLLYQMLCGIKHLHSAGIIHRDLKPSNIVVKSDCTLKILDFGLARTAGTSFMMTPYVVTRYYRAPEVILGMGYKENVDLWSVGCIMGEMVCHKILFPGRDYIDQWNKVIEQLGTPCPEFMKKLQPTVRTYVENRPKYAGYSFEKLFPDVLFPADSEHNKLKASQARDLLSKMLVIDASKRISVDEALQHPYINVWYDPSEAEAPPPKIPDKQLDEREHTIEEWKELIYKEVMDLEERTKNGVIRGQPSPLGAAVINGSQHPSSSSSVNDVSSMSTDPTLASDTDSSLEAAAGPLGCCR
CDK7, sequence (P50613 whole entry): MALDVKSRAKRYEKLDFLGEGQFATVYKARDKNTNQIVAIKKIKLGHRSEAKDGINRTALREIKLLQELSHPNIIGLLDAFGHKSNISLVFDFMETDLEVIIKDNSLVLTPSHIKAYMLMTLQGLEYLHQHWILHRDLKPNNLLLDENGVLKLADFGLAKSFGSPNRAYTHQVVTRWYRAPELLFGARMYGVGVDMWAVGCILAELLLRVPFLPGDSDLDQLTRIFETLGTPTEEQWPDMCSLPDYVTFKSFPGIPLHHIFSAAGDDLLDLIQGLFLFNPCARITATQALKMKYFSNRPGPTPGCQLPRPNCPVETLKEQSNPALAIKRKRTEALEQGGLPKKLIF
PRKR (EIF2AK2), sequence (P19525 whole entry): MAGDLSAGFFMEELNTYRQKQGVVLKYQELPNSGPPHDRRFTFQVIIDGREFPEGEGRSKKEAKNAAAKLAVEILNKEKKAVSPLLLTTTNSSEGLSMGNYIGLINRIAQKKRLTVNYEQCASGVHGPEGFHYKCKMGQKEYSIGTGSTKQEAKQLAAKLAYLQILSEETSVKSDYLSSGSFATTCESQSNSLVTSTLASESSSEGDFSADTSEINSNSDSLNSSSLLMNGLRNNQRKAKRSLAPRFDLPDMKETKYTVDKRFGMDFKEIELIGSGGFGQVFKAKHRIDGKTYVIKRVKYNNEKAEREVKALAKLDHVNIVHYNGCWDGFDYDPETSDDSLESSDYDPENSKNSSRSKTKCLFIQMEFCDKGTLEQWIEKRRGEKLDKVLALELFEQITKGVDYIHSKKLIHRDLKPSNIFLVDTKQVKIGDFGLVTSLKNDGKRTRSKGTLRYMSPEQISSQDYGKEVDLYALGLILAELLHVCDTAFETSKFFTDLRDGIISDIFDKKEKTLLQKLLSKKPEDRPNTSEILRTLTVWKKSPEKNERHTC

Q: Which remaining binding at 2 µM (PRKR (EIF2AK2)) does the source give for `CN1CCN(C(=O)c2ccc3cc(CCNc4ccnc5ccc(C#N)cc45)ccc3c2)CC1` [compound 6148, 4-((2-(6-(4-methylpiperazine-1-carbonyl)naphthalen-2-yl)ethyl)amino)quinoline-6-carbonitrile] here?
A: Its remaining binding at 2 µM is 88%.

Q: What about the remaining binding at 2 µM (ARK5 (NUAK1)) of the same compound?
A: The remaining binding at 2 µM was 89%.

Q: What about the remaining binding at 2 µM (ALK) of the same compound?
A: The remaining binding at 2 µM was 89%.

Q: What about the remaining binding at 2 µM (LATS1) of the same compound?
A: The remaining binding at 2 µM was 76%.

Q: And the remaining binding at 2 µM (TNK2)?
A: The remaining binding at 2 µM was 94%.

Q: What about the remaining binding at 2 µM (PAK2) of the same compound?
A: Its remaining binding at 2 µM is 84%.

Q: What about the remaining binding at 2 µM (EGFR(L858R)) of the same compound?
A: Its remaining binding at 2 µM is 93%.

Q: And the remaining binding at 2 µM (TESK1)?
A: Its remaining binding at 2 µM is 96%.

Q: What about the remaining binding at 2 µM (SGK3) of the same compound?
A: Its remaining binding at 2 µM is 75%.

Q: And the remaining binding at 2 µM [1]?
A: The remaining binding at 2 µM was 74%.

Q: What about the remaining binding at 2 µM (JNK1 (MAPK8)) of the same compound?
A: Its remaining binding at 2 µM is 54%.

Q: What about the remaining binding at 2 µM (BMX) of the same compound?
A: Its remaining binding at 2 µM is 100%.

Q: And the remaining binding at 2 µM (MAK)?
A: Its remaining binding at 2 µM is 100%.

Q: And the remaining binding at 2 µM (FGFR1)?
A: Its remaining binding at 2 µM is 85%.

Q: And the remaining binding at 2 µM (EGFR)?
A: Its remaining binding at 2 µM is 91%.

Q: What about the remaining binding at 2 µM (EPHA4) of the same compound?
A: The remaining binding at 2 µM was 93%.

Q: And the remaining binding at 2 µM (SRPK1)?
A: Its remaining binding at 2 µM is 91%.

Q: And the remaining binding at 2 µM (LIMK1)?
A: Its remaining binding at 2 µM is 95%.

Q: And the remaining binding at 2 µM (SNRK)?
A: The remaining binding at 2 µM was 75%.

Q: And the remaining binding at 2 µM (RIOK2)?
A: Its remaining binding at 2 µM is 64%.

Q: What about the remaining binding at 2 µM (HIPK3) of the same compound?
A: The remaining binding at 2 µM was 52%.

Q: What about the remaining binding at 2 µM (KIT-autoinhibited) of the same compound?
A: The remaining binding at 2 µM was 88%.

Q: What about the remaining binding at 2 µM (ITK) of the same compound?
A: The remaining binding at 2 µM was 93%.

Q: What about the remaining binding at 2 µM [2] of the same compound?
A: The remaining binding at 2 µM was 83%.

Q: What about the remaining binding at 2 µM (DLK (MAP3K12)) of the same compound?
A: Its remaining binding at 2 µM is 68%.

Q: What about the remaining binding at 2 µM [3] of the same compound?
A: Its remaining binding at 2 µM is 89%.

Q: And the remaining binding at 2 µM (CDK7)?
A: The remaining binding at 2 µM was 69%.

Q: And the remaining binding at 2 µM (PAK6)?
A: Its remaining binding at 2 µM is 90%.

Q: And the remaining binding at 2 µM (CAMK1B (PNCK))?
A: The remaining binding at 2 µM was 92%.

Q: What about the remaining binding at 2 µM (DAPK1) of the same compound?
A: The remaining binding at 2 µM was 100%.

Q: And the remaining binding at 2 µM (WEE2)?
A: The remaining binding at 2 µM was 95%.

Q: What about the remaining binding at 2 µM (CDKL2) of the same compound?
A: Its remaining binding at 2 µM is 75%.

Q: And the remaining binding at 2 µM (NEK10)?
A: The remaining binding at 2 µM was 41%.

Q: What about the remaining binding at 2 µM (IRAK3) of the same compound?
A: The remaining binding at 2 µM was 94%.

Q: What about the remaining binding at 2 µM (NEK1) of the same compound?
A: The remaining binding at 2 µM was 84%.

Q: And the elimination rate k ([4]; i.p. 19 mg/kg, female FVB mice)?
A: Its elimination rate k is 0.94 h⁻¹.

Q: What about the t1/2 ([4]; i.p. 19 mg/kg, female FVB mice) of the same compound?
A: The t1/2 was 44.4 min.

Q: And the “Half-life higher than Senexin B” value ([4]; i.p., mice)?
A: Its value is > 4 fold.

Q: And the half-life ([4]; mouse, serum, ip, i.p. 19 mg/kg, female FVB mice)?
A: The half-life was 44.4 min.

Q: What about the AUC ([4]; mouse, serum, ip, i.p. 19 mg/kg, female FVB mice, read-out: AUC) of the same compound?
A: Its AUC is 1570 ng·h/mL.

Q: What about the Cmax ([4]; mouse, serum, ip, i.p. 19 mg/kg, female FVB mice, read-out: Cmax) of the same compound?
A: Its Cmax is 1160 ng/mL.

Q: And the bioavailability ([4]; mouse, serum, ip, i.p. 19 mg/kg, female FVB mice, read-out: bioavailability (F %))?
A: The bioavailability was 73%.

Q: And the remaining binding at 2 µM (SLK)?
A: Its remaining binding at 2 µM is 92%.

Q: And the remaining binding at 2 µM (TXK)?
A: Its remaining binding at 2 µM is 94%.

Q: And the remaining binding at 2 µM (IGF1R)?
A: The remaining binding at 2 µM was 94%.
